Active and inactive are the calls of the source. How the calls were made is not given here.
System: CCRIS mutagenicity, Ames/micronucleus/aberration tests
Assay: CCRIS mutagenicity studies

SMILES: O=C([O-])c1ccccn1.O=C([O-])c1ccccn1.O=C([O-])c1ccccn1.[Cr+3]
- mutagenic call (End Point: In vivo chromosomal aberrations, Test System: Bone marrow cells, Species: Rat, Strain/Sex: Sprague-Dawley/Male and female, Route: Oral (gavage) once): inactive; negative
- mutagenic call (End Point: In vivo micronucleus, Test System: Bone marrow polychromatic erythrocytes, Species: Rat, Strain/Sex: F344/N / Male, Route: Oral): inactive; negative
- mutagenic call (Test System: AMES SALMONELLA TYPHIMURIUM, Strain/Indicator: TA98, Metabolic Activation: HAMSTER LIVER S-9, AROCLOR 1254, Method: STANDARD PLATE): inactive; negative
- mutagenic call (Test System: AMES SALMONELLA TYPHIMURIUM, Strain/Indicator: TA98, Metabolic Activation: HAMSTER, LIVER, S-9, AROCLOR 1254, Method: STANDARD PLATE): inactive; negative
- mutagenic call (Test System: AMES SALMONELLA TYPHIMURIUM, Strain/Indicator: TA98, Metabolic Activation: NONE, Method: STANDARD PLATE): inactive; negative
- mutagenic call (Test System: AMES SALMONELLA TYPHIMURIUM, Strain/Indicator: TA98, Metabolic Activation: RAT LIVER S-9, AROCLOR 1254, Method: STANDARD PLATE): inactive; negative
- mutagenic call (Test System: AMES SALMONELLA TYPHIMURIUM, Strain/Indicator: TA98, Metabolic Activation: RAT, LIVER, S-9, AROCLOR 1254, Method: STANDARD PLATE): inactive; negative
- mutagenic call (Test System: AMES SALMONELLA TYPHIMURIUM, Strain/Indicator: TA100, Metabolic Activation: HAMSTER LIVER S-9, AROCLOR 1254, Method: STANDARD PLATE): inactive; negative
- mutagenic call (Test System: AMES SALMONELLA TYPHIMURIUM, Strain/Indicator: TA100, Metabolic Activation: HAMSTER, LIVER, S-9, AROCLOR 1254, Method: STANDARD PLATE): inactive; negative
- mutagenic call (Test System: AMES SALMONELLA TYPHIMURIUM, Strain/Indicator: TA100, Metabolic Activation: NONE, Method: STANDARD PLATE): inactive; negative
- mutagenic call (Test System: AMES SALMONELLA TYPHIMURIUM, Strain/Indicator: TA100, Metabolic Activation: RAT LIVER S-9, AROCLOR 1254, Method: STANDARD PLATE): inactive; negative
- mutagenic call (Test System: AMES SALMONELLA TYPHIMURIUM, Strain/Indicator: TA100, Metabolic Activation: RAT, LIVER, S-9, AROCLOR 1254, Method: STANDARD PLATE): inactive; negative
- mutagenic call (Test System: AMES SALMONELLA TYPHIMURIUM, Strain/Indicator: TA102, Metabolic Activation: HAMSTER LIVER S-9, AROCLOR 1254, Method: STANDARD PLATE): inactive; negative
- mutagenic call (Test System: AMES SALMONELLA TYPHIMURIUM, Strain/Indicator: TA102, Metabolic Activation: NONE, Method: STANDARD PLATE): inactive; negative
- mutagenic call (Test System: AMES SALMONELLA TYPHIMURIUM, Strain/Indicator: TA102, Metabolic Activation: RAT LIVER S-9, AROCLOR 1254, Method: STANDARD PLATE): inactive; negative
- mutagenic call (Test System: AMES SALMONELLA TYPHIMURIUM, Strain/Indicator: TA1535, Metabolic Activation: HAMSTER LIVER S-9, AROCLOR 1254, Method: STANDARD PLATE): inactive; negative
- mutagenic call (Test System: AMES SALMONELLA TYPHIMURIUM, Strain/Indicator: TA1535, Metabolic Activation: HAMSTER, LIVER, S-9, AROCLOR 1254, Method: STANDARD PLATE): inactive; negative
- mutagenic call (Test System: AMES SALMONELLA TYPHIMURIUM, Strain/Indicator: TA1535, Metabolic Activation: NONE, Method: STANDARD PLATE): inactive; negative
- mutagenic call (Test System: AMES SALMONELLA TYPHIMURIUM, Strain/Indicator: TA1535, Metabolic Activation: RAT LIVER S-9, AROCLOR 1254, Method: STANDARD PLATE): inactive; negative
- mutagenic call (Test System: AMES SALMONELLA TYPHIMURIUM, Strain/Indicator: TA1535, Metabolic Activation: RAT, LIVER, S-9, AROCLOR 1254, Method: STANDARD PLATE): inactive; negative
- mutagenic call (Test System: AMES SALMONELLA TYPHIMURIUM, Strain/Indicator: TA1537, Metabolic Activation: HAMSTER LIVER S-9, AROCLOR 1254, Method: STANDARD PLATE): inactive; negative
- mutagenic call (Test System: AMES SALMONELLA TYPHIMURIUM, Strain/Indicator: TA1537, Metabolic Activation: HAMSTER, LIVER, S-9, AROCLOR 1254, Method: STANDARD PLATE): inactive; negative
- mutagenic call (Test System: AMES SALMONELLA TYPHIMURIUM, Strain/Indicator: TA1537, Metabolic Activation: NONE, Method: STANDARD PLATE): inactive; negative
- mutagenic call (Test System: AMES SALMONELLA TYPHIMURIUM, Strain/Indicator: TA1537, Metabolic Activation: RAT LIVER S-9, AROCLOR 1254, Method: STANDARD PLATE): inactive; negative
- mutagenic call (Test System: AMES SALMONELLA TYPHIMURIUM, Strain/Indicator: TA1537, Metabolic Activation: RAT, LIVER, S-9, AROCLOR 1254, Method: STANDARD PLATE): inactive; negative
- mutagenic call (Test System: Ames Salmonella typhimurium, Strain/Indicator: TA97, Metabolic Activation: Hamster, Liver, S-9, Aroclor 1254 (10 and 30%), Method: Preincubation): inactive; negative
- mutagenic call (Test System: Ames Salmonella typhimurium, Strain/Indicator: TA97, Metabolic Activation: None, Method: Preincubation): inactive; negative
- mutagenic call (Test System: Ames Salmonella typhimurium, Strain/Indicator: TA97, Metabolic Activation: Rat, Liver, S-9, Aroclor 1254 (10 and 30%), Method: Preincubation): inactive; negative
- mutagenic call (Test System: Ames Salmonella typhimurium, Strain/Indicator: TA98, Metabolic Activation: Hamster, Liver, S-9, Aroclor 1254 (10 and 30%), Method: Preincubation): inactive; negative
- mutagenic call (Test System: Ames Salmonella typhimurium, Strain/Indicator: TA98, Metabolic Activation: None, Method: Preincubation): inactive; negative
- mutagenic call (Test System: Ames Salmonella typhimurium, Strain/Indicator: TA98, Metabolic Activation: Rat, Liver, S-9, Aroclor 1254 (10 and 30%), Method: Preincubation): inactive; negative
- mutagenic call (Test System: Ames Salmonella typhimurium, Strain/Indicator: TA100, Metabolic Activation: Hamster, Liver, S-9, Aroclor 1254 (10 and 30%), Method: Preincubation): inactive; negative
- mutagenic call (Test System: Ames Salmonella typhimurium, Strain/Indicator: TA100, Metabolic Activation: None, Method: Preincubation): inactive; negative
- mutagenic call (Test System: Ames Salmonella typhimurium, Strain/Indicator: TA100, Metabolic Activation: Rat, Liver, S-9, Aroclor 1254 (10 and 30%), Method: Preincubation): inactive; negative
- mutagenic call (Test System: Ames Salmonella typhimurium, Strain/Indicator: TA102, Metabolic Activation: Hamster, Liver, S-9, Aroclor 1254 (10 and 30%), Method: Preincubation): inactive; negative
- mutagenic call (Test System: Ames Salmonella typhimurium, Strain/Indicator: TA102, Metabolic Activation: Hamster, Liver, S-9, Aroclor 1254 (30%), Method: Preincubation): inactive; negative
- mutagenic call (Test System: Ames Salmonella typhimurium, Strain/Indicator: TA102, Metabolic Activation: None, Method: Preincubation): inactive; negative
- mutagenic call (Test System: Ames Salmonella typhimurium, Strain/Indicator: TA102, Metabolic Activation: Rat, Liver, S-9, Aroclor 1254 (10 and 30%), Method: Preincubation): inactive; negative
- mutagenic call (Test System: Ames Salmonella typhimurium, Strain/Indicator: TA102, Metabolic Activation: Rat, Liver, S-9, Aroclor 1254 (30%), Method: Preincubation): inactive; negative
- mutagenic call (Test System: Ames Salmonella typhimurium, Strain/Indicator: TA104, Metabolic Activation: Hamster, Liver, S-9, Aroclor 1254 (10 and 30%), Method: Preincubation): inactive; negative
- mutagenic call (Test System: Ames Salmonella typhimurium, Strain/Indicator: TA104, Metabolic Activation: Hamster, Liver, S-9, Aroclor 1254 (30%), Method: Preincubation): inactive; negative
- mutagenic call (Test System: Ames Salmonella typhimurium, Strain/Indicator: TA104, Metabolic Activation: None, Method: Preincubation): inactive; negative
- mutagenic call (Test System: Ames Salmonella typhimurium, Strain/Indicator: TA104, Metabolic Activation: Rat, Liver, S-9, Aroclor 1254 (10 and 30%), Method: Preincubation): inactive; negative
- mutagenic call (Test System: Ames Salmonella typhimurium, Strain/Indicator: TA104, Metabolic Activation: Rat, Liver, S-9, Aroclor 1254 (30%), Method: Preincubation): inactive; negative
- mutagenic call (Test System: Ames Salmonella typhimurium, Strain/Indicator: TA1535, Metabolic Activation: Hamster, Liver, S-9, Aroclor 1254 (10 and 30%), Method: Preincubation): inactive; negative
- mutagenic call (Test System: Ames Salmonella typhimurium, Strain/Indicator: TA1535, Metabolic Activation: None, Method: Preincubation): inactive; negative
- mutagenic call (Test System: Ames Salmonella typhimurium, Strain/Indicator: TA1535, Metabolic Activation: Rat, Liver, S-9, Aroclor 1254 (10 and 30%), Method: Preincubation): inactive; negative
- mutagenic call (Test System: CHINESE HAMSTER OVARY CELLS, Strain/Indicator: CHO CELLS (HPRT)/6-THIOGUANINE, Metabolic Activation: NONE, Method: STANDARD PLATE): active; positive
- mutagenic call (Test System: CHINESE HAMSTER OVARY CELLS, Strain/Indicator: CHO-K1/HPRT/6-THIOGUANINE, Metabolic Activation: NONE, Method: 5 HR EXPOSURE): inactive; negative
- mutagenic call (Test System: CHINESE HAMSTER OVARY CELLS, Strain/Indicator: CHO-K1/HPRT/6-THIOGUANINE, Metabolic Activation: NONE, Method: 48 HR EXPOSURE): inactive; negative
- mutagenic call (Test System: CHINESE HAMSTER OVARY CELLS, Strain/Indicator: CHO-K1/HPRT/6-THIOGUANINE, Metabolic Activation: RAT, LIVER, S-9, AROCLOR 1254, Method: 5 HR EXPOSURE): inactive; negative

SMILES: CSCCl
- mutagenic call (Test System: AMES SALMONELLA TYPHIMURIUM, Strain/Indicator: TA98, Metabolic Activation: NONE, Method: SPOT TEST): inactive; negative
- mutagenic call (Test System: AMES SALMONELLA TYPHIMURIUM, Strain/Indicator: TA98, Metabolic Activation: RAT, LIVER, S-9, AROCLOR 1254, Method: SPOT TEST): inactive; negative
- mutagenic call (Test System: AMES SALMONELLA TYPHIMURIUM, Strain/Indicator: TA100, Metabolic Activation: NONE, Method: SPOT TEST): active; positive
- mutagenic call (Test System: AMES SALMONELLA TYPHIMURIUM, Strain/Indicator: TA100, Metabolic Activation: RAT, LIVER, S-9, AROCLOR 1254, Method: SPOT TEST): active; positive
- mutagenic call (Test System: AMES SALMONELLA TYPHIMURIUM, Strain/Indicator: TA102, Metabolic Activation: RAT, LIVER, S-9, AROCLOR 1254, Method: SPOT TEST): active; positive

— PubChem BioAssay AID1259407 (Chemical Carcinogenesis Research Information System (CCRIS), 2018)
